The text below walks through data of the METLIN SMRT retention time set (Domingo-Almenara et al. 2019).

The nature of this data set: gradient 5% acetonitrile 3 min, to 50% in 2 min, to 85% in 15 min, held 3 min, 100 µL/min. Conditions: column: Zorbax Extend-C18 2.1 x 50 mm; eluents: water / acetonitrile, 0.1% formic acid. Put shortly:
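Pure standards were analyzed in mixtures of ~100 molecules using HPLC coupled to a quadrupole time-of-flight mass spectrometer, in both positive and negative ionization mode. Separation used a Zorbax Extend-C18 column (2.1 × 50 mm, 1.8 μm) at 100 μL/min, with water and acetonitrile each containing 0.1% formic acid. Dead and dwell volumes were 40 μL and 900 μL, and data were collected over 3 months. Retention time was read from computationally picked adduct peaks, each inspected manually.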
Compound `CCCc1nc(-c2c(C)cc(C)nc2NC(=O)c2ccc(F)cc2Cl)no1` had an RP-LC retention time of 937 s.
The same measure for `CCc1nc(-c2ccc3c(c2)CCN3C(=O)Cc2cccc(F)c2)no1`: 1030 s; for `CC1CCN(S(=O)(=O)c2cc(-c3ccc(=O)[nH]n3)cs2)CC1`: 772 s; for `CN1CCc2nnc(C3CCCN3C(=O)Nc3ccc(Cl)cc3F)n2CC1` (stereo not drawn): 581 s.
Take `O=C(Cn1c(=O)c(CCC(=O)NC2CC2)nc2ccccc21)NCc1ccccc1`: the RP-LC retention time turned out to be 693 s.
Turning to `O=S(=O)(Nc1ccc(Cn2cncn2)cc1)c1ccc(Br)cc1`, the RP-LC retention time amounted to 747 s.
To `Cc1ccc(CC(=O)Nc2ccc(-c3nc(Cn4cccn4)c(C)o3)cc2)cc1` belongs 880 s.
Take `CCC1(O)CCOC2(CCN(Cc3ccc(OC)c(C)c3)CC2)C1` (stereo not drawn): the RP-LC retention time stood at 575 s.
For `Cc1cc(C)cc(NC(=O)Cn2nc(N3CCCC(C)C3)c3ccccc3c2=O)c1` (stereo not drawn), the RP-LC retention time stood at 1240 s.
Compound `Cc1ccc2[nH]c(=O)c(CCC(=O)NCCN3CCOCC3)cc2c1` yielded an RP-LC retention time of 577 s.
For the compound `COc1ccccc1OCC(=O)Nc1ccc2c(c1)CN(C(=O)C1CC1)CC2`, the RP-LC retention time came out at 743 s.
To `COC(=O)C(C)NC(=O)N1CCCN(C2=NS(=O)(=O)C(c3ccc(C)cc3)=C2C)CC1` (stereo not drawn) belongs 736 s; to `Cc1nn(C(C)C(=O)NCCCN2CCN(C)CC2)c(=O)c2c1sc1ccccc12` (stereo not drawn), 592 s.
Turning to `Cn1cc(CCNC(=O)CSc2ccccc2)c2cccnc21`, the RP-LC retention time came out at 686 s.
Consider `Cc1cc(C)cc(-n2ccn(Cc3nc(-c4cccc(F)c4)no3)c(=O)c2=O)c1`, for which the RP-LC retention time is 901 s.
To `O=c1c2ccccc2ncn1Cc1noc(-c2cccc(Br)c2)n1` belongs 914 s; to `O=C(Cn1nc2c(N3CCCCCC3)nccn2c1=O)Nc1cccc(Cl)c1F`, 750 s.
The same measure for `NC(N)=NCc1cccc(I)c1`: 442 s.
The same measure for `CS(=O)(=O)N1CCC(C(=O)NC2CCCCC2)Oc2ccc(Cl)cc21` (stereo not drawn): 922 s.
In turn, `CC1CCN(S(=O)(=O)c2ccc3nc(N4CCN(C(=O)c5ccco5)CC4)ccc3c2)CC1` came in with an RP-LC retention time of 852 s.
As for `CCC(=O)NCc1nc2c(n1CC)CN(S(=O)(=O)c1ccc(C)c(C)c1)CC2`, the RP-LC retention time was determined as 583 s.
To `O=C1COc2ccccc2N1Cc1nc(-c2ccc(OC(F)(F)F)cc2)no1` belongs 1100 s.
`COc1ccc(OC)c(NC(=O)c2c(N3CCCC3=O)c3cc(F)ccc3n2C)c1` yielded an RP-LC retention time of 785 s.
As to `CCCn1cc(C(=O)NCCCOC)c(S(=O)(=O)N2CCN(c3ccc(Cl)cc3)CC2)n1`, the RP-LC retention time was 1000 s.
Compound `CCN1CCCn2cc(S(=O)(=O)NCc3ccc(C)cc3)cc2C1=O` showed an RP-LC retention time of 778 s.
With `Cn1ncc2c(N3CCOCC3)nc(C(=O)NCc3ccc(F)cc3)nc21`, the RP-LC retention time amounted to 708 s.
Turning to `Cc1c(C(=O)NCC2CC2)cnn1-c1cc(-c2nc(C3CC3)no2)ccn1`, the RP-LC retention time amounted to 909 s.
Turning to `COc1ccccc1-c1noc(C2CCCN2C(=O)Nc2ccc(C)cc2)n1` (stereo not drawn), the RP-LC retention time worked out at 877 s.
To `CCOC(=O)c1c(C)[nH]c(C(=O)N2CCCC(C(=O)NCc3cccc(F)c3)C2)c1C` (stereo not drawn) belongs 808 s; to `CC(C)CNC(=O)CCc1nc2ccccc2n(CC(=O)NC(C)CCc2ccccc2)c1=O` (stereo not drawn), 869 s; to `O=C(Cn1c(C(F)(F)F)nc2cc3c(cc21)OCCO3)Nc1ccc2c(c1)OCCCO2`, 836 s.
As to `COc1cccc(C(=O)CSc2ccc(NC(=O)c3cccs3)nn2)c1`, the RP-LC retention time came out at 846 s.
The same measure for `Cn1c(=O)c2nc(S(=O)(=O)CCC(=O)Nc3ccc(F)c(F)c3)n(C)c2n(C)c1=O`: 758 s.
